Source: patent US20040014721A1, “Method for using tethered bis(polyhydroxyphenyls) and O-alkyl derivatives thereof in treating inflammatory conditions of the central nervous system” (Oklahoma Medical Research Foundation, priority 2002, published 2004)

system: TNFα-Stimulated NO2^− Production in EOC-20 Cells; assay: TNFα-stimulated nitrite (NO2−) production in EOC-20 microglial cells, Griess assay; type: cell-based, mouse; conditions: Table III; 10 ng/mL TNFα, 24 hr; by interpolation
Experimental: Cells were cultured in 24 well plates until confluent then treated with test agent, which was dissolved at 100× final concentration in dimethylsulfoxide (DMSO), or with vehicle only. Thirty minutes after treatment with test agent, cells were treated with 10 ng/mL recombinant mouse TNFα (Pharmingen, San Diego, Calif. USA). […] Each compound was tested at 100 μM, 20 μM, 4 μM, 0.8 μM and 0 μM in the presence of TNFα. Four wells of cells were used for each concentration of test agent.
(§1) Lower IC50 values indicate improved efficacy. FIG. 2 illustrates the principle of the measurement using NDGA as an example test agent. In order to determine viability, cell culture medium was replaced with phenol-free DMEM (Gibco) containing 20 μL/mL of MTT viability reagent (Promega). […] Control cells were taken to indicate 100% viability and intermediate values of MTT reduction were scaled to percentage of control. For each compound, an LD50 value was determined by extrapolation through sublethal concentrations. This value represents the concentration that reduced the MTT viability parameter by 50%.

**Q.** For `N#CC(C#N)=C(N)/C(C#N)=C/c1cc(O)c(O)c(O)c1` [Tyrphostin 51], which IC50 is on record?
**A.** Inactive

**Q.** `CC(C)(C)[N+]([O-])=Cc1cccc(O)c1` [3-OH-PBN] was tested. Which IC50 did it give?
**A.** Inactive

**Q.** For `COc1ccc(/C=C/c2cc(O)cc(O[C@@H]3O[C@H](CO)[C@@H](O)[C@H](O)[C@H]3O)c2)cc1O` [Rhapontin (natural, rhubarb), Rhapontin], which IC50 is on record?
**A.** Inactive

**Q.** How did the IC50 turn out when `c1ccc2c(c1)ccc1c3ccccc3ccc21` [Chrysene] was run?
**A.** Inactive

**Q.** With `O=C(O)CCCC[C@@H]1CCSS1` (racemic) [Lipoic acid] as the compound, how does the IC50 read?
**A.** Inactive

**Q.** With `COC1=C(OC)C(=O)C(C/C=C(\C)CC/C=C(\C)CC/C=C(\C)CC/C=C(\C)CC/C=C(\C)CC/C=C(\C)CC/C=C(\C)CC/C=C(\C)CC/C=C(\C)CCC=C(C)C)=C(C)C1=O` [coenzyme O] as the compound, how does the IC50 read?
**A.** Inactive

**Q.** How did the IC50 turn out when `C[C@@H]1C(=O)O[C@H]2[C@@H](O)[C@@]34[C@H]5C[C@@H](C(C)(C)C)[C@]36[C@@H](OC(=O)[C@@H]6O)O[C@@]4(C(=O)O5)[C@@]12O` [gingkolide B] was run?
**A.** Inactive

**Q.** For `C(=C\c1ccccc1)/c1ccccc1` [Trans-stilbene, Trans- stilbene], which IC50 is on record?
**A.** Inactive

**Q.** Which IC50 does the source give for `CC(C)(C)[N+]([O-])=Cc1ccccc1O` [2-OH-PBN] here?
**A.** Inactive

**Q.** For `CC(C)(C)[N+]([O-])=Cc1ccc(O)cc1` [4-OH-PBN], which IC50 is on record?
**A.** Inactive

**Q.** How did the IC50 turn out when `Cc1c(C)c2c(c(C)c1O)CC[C@@](C)(CCC[C@H](C)CCC[C@H](C)CCCC(C)C)O2` [alpha tocopherol] was run?
**A.** Inactive

same assay, conditions: Table III; 10 ng/mL TNFα, 24 hr; by interpolation; read-out: IC50

**Q.** How did the IC50 turn out when `N#CC(C#N)=Cc1ccc([N+](=O)[O-])c(O)c1` [Tyrphostin AG126] was run?
**A.** 18 µM

**Q.** `O=c1cc(-c2ccccc2)oc2cc(O)ccc12` [7-OH-flavone, 7-OH-flavone] was tested. Which IC50 did it give?
**A.** 65 µM

**Q.** With `CN(C)[C@@H]1C(O)=C(C(N)=O)C(=O)[C@@]2(O)C(O)=C3C(=O)c4c(O)cccc4[C@@](C)(O)[C@H]3[C@H](O)[C@@H]12` [Oxyletracycline] as the compound, how does the IC50 read?
**A.** 64 µM

**Q.** For `C[C@H](Cc1ccc(O)c(O)c1)[C@@H](C)Cc1ccc(O)c(O)c1` [NDGA (synthetic), nordihydroguaiaretic acid], which IC50 is on record?
**A.** 4 µM

**Q.** How did the IC50 turn out when `O=c1c(O)c(-c2ccccc2)oc2ccccc12` [3-OH-flavone] was run?
**A.** 70 µM

**Q.** With `S=C(S)N1CCCC1` [pyrollidine dithiocarbamate (PDTC), pyrollidine dithiocarbamate] as the compound, how does the IC50 read?
**A.** 51 µM

**Q.** How did the IC50 turn out when `CC(C)(C)/[N+]([O-])=C/c1ccccc1` [phenyl N tert-butyl-nitrone (PBN), phenyl N tert-butyl-nitrone] was run?
**A.** 100 µM

same assay, conditions: Table V; read-out: IC50

**Q.** How did the IC50 turn out when `COc1cc(/C=C/C(=O)CC(=O)/C=C/c2ccc(OC(C)=O)c(OC)c2)ccc1OC(C)=O` [curcumin diacetyl ester] was run?
**A.** 14 µM

**Q.** Which IC50 does the source give for `C[C@H](Cc1ccc(O)c(O)c1)[C@@H](C)Cc1ccc(O)c(O)c1` [NDGA (synthetic), nordihydroguaiaretic acid] here?
**A.** 4 µM

**Q.** For `CC(C)c1ccc2c(c1)c(SC(C)(C)C)c(CC(C)(C)C(=O)O)n2Cc1ccc(Cl)cc1` [MK-886], which IC50 is on record?
**A.** 41 µM

**Q.** How did the IC50 turn out when `CC(=O)Oc1ccc(CC(C)C(C)Cc2ccc(OC(C)=O)c(OC(C)=O)c2)cc1OC(C)=O` (stereo not drawn) [NDGA tetraacetyl ester] was run?
**A.** 5 µM

same assay, conditions: read-out: IC50

**Q.** How did the IC50 turn out when `Oc1ccc(C#CC/C=C/c2ccc(O)c(O)c2)cc1O` [rooperol] was run?
**A.** 25 µM

**Q.** With `CCOc1ccc(CC(C)C(C)Cc2ccc(OCC)c(OCC)c2)cc1OCC` (stereo not drawn) [Tetra-ethyl ether of NDGA (synthetic), Tetra-ethyl ether of NDGA] as the compound, how does the IC50 read?
**A.** 0.8 µM

system: EOC-20 cells; assay: not given; conditions: not given
Experimental: as §1

**Q.** With `Oc1ccc(C#CC/C=C/c2ccc(O)c(O)c2)cc1O` [rooperol] as the compound, how does the “cytotoxicity” value read?
**A.** nontoxic

**Q.** With `COc1ccc(/C=C/c2cc(O)cc(O[C@@H]3O[C@H](CO)[C@@H](O)[C@H](O)[C@H]3O)c2)cc1O` [Rhapontin (natural, rhubarb), Rhapontin] as the compound, how does the LD50 read?
**A.** nontoxic

**Q.** For `O=c1c(O)c(-c2ccccc2)oc2ccccc12` [3-OH-flavone], which LD50 is on record?
**A.** 125 μm

**Q.** How did the LD50 turn out when `COC1=C(OC)C(=O)C(C/C=C(\C)CC/C=C(\C)CC/C=C(\C)CC/C=C(\C)CC/C=C(\C)CC/C=C(\C)CC/C=C(\C)CC/C=C(\C)CC/C=C(\C)CCC=C(C)C)=C(C)C1=O` [coenzyme O] was run?
**A.** nontoxic

**Q.** `C(=C\c1ccccc1)/c1ccccc1` [Trans-stilbene, Trans- stilbene] was tested. Which LD50 did it give?
**A.** nontoxic

**Q.** With `CC(C)c1ccc2c(c1)c(SC(C)(C)C)c(CC(C)(C)C(=O)O)n2Cc1ccc(Cl)cc1` [MK-886] as the compound, how does the LD50 read?
**A.** 40 µM

**Q.** How did the LD50 turn out when `Cc1c(C)c2c(c(C)c1O)CC[C@@](C)(CCC[C@H](C)CCC[C@H](C)CCCC(C)C)O2` [alpha tocopherol] was run?
**A.** nontoxic

same assay, conditions: Table III; MTT viability; by extrapolation through sublethal concentrations

**Q.** For `N#CC(C#N)=C(N)/C(C#N)=C/c1cc(O)c(O)c(O)c1` [Tyrphostin 51], which LD50 is on record?
**A.** nontoxic

**Q.** For `N#CC(C#N)=Cc1ccc([N+](=O)[O-])c(O)c1` [Tyrphostin AG126], which LD50 is on record?
**A.** 150 μm

**Q.** With `O=c1cc(-c2ccccc2)oc2cc(O)ccc12` [7-OH-flavone, 7-OH-flavone] as the compound, how does the LD50 read?
**A.** 125 μm

**Q.** `CC(C)(C)[N+]([O-])=Cc1cccc(O)c1` [3-OH-PBN] was tested. Which LD50 did it give?
**A.** nontoxic

**Q.** With `c1ccc2c(c1)ccc1c3ccccc3ccc21` [Chrysene] as the compound, how does the LD50 read?
**A.** nontoxic

**Q.** `C[C@@H]1C(=O)O[C@H]2[C@@H](O)[C@@]34[C@H]5C[C@@H](C(C)(C)C)[C@]36[C@@H](OC(=O)[C@@H]6O)O[C@@]4(C(=O)O5)[C@@]12O` [gingkolide B] was tested. Which LD50 did it give?
**A.** nontoxic

**Q.** Which LD50 does the source give for `S=C(S)N1CCCC1` [pyrollidine dithiocarbamate (PDTC), pyrollidine dithiocarbamate] here?
**A.** 90 μm

**Q.** How did the LD50 turn out when `CC(C)(C)[N+]([O-])=Cc1ccccc1O` [2-OH-PBN] was run?
**A.** nontoxic

**Q.** `CC(C)(C)[N+]([O-])=Cc1ccc(O)cc1` [4-OH-PBN] was tested. Which LD50 did it give?
**A.** nontoxic

**Q.** How did the LD50 turn out when `CC(C)(C)/[N+]([O-])=C/c1ccccc1` [phenyl N tert-butyl-nitrone (PBN), phenyl N tert-butyl-nitrone] was run?
**A.** nontoxic

**Q.** For `C[S+]([O-])c1ccc(-c2nc(-c3ccncc3)c(-c3ccc(F)cc3)[nH]2)cc1` (stereo not drawn) [SB203580], which LD50 is on record?
**A.** 100 μm

same assay, conditions: Table V

**Q.** How did the LD50 turn out when `COc1cc(/C=C/C(=O)CC(=O)/C=C/c2ccc(OC(C)=O)c(OC)c2)ccc1OC(C)=O` [curcumin diacetyl ester] was run?
**A.** Nontoxic

**Q.** How did the LD50 turn out when `CC(=O)Oc1ccc(CC(C)C(C)Cc2ccc(OC(C)=O)c(OC(C)=O)c2)cc1OC(C)=O` (stereo not drawn) [NDGA tetraacetyl ester] was run?
**A.** Nontoxic

system: LnCAP Production of PSA; assay: LnCAP production of PSA (ELISA); type: cell-based; conditions: 24 h
Experimental: LnCAP prostate cancer cells were be cultured according to established methods (Horoszewicz et al., 1983). These cells product prostate-specific antigen (PSA), a serine protease that predicts metastatic potential ([…] et al., 2000). […] Each drug was tested in triplicate at each concentration. Medium was removed and tested for PSA concentration using a commercially available enzyme-linked immunosorbent assay (ELISA). Viability was determined in the adherent cells using the MTT assay.

**Q.** With `Oc1cc(O)c2c(c1)O[C@H](c1ccc(O)c(O)c1)[C@H](O)C2` [Epicatechin] as the compound, how does the “IC50 Values (ELISA), PSA production” value read?
**A.** Inactive
